Counter-ions that a name gives are not always drawn. Like-named read-outs stand apart in the source and are kept apart here.
Legend:
Assay type in all cases: biochemical
recombinant PRL-1 = biological target: T1, recombinant PRL-1 (Homo sapiens, UniProt Q93096); assay: In vitro phosphatase assay (DiFMUP hydrolysis), PRL-1; on % Phosphatase Activity (compared to DMSO) PRL-1: test concentration or dose not given here
T1 construct: 6xHis (N, cleaved yes); made in house; host or cells: E. coli One Shot BL21 Star
T1 sequence (Q93096 1-173): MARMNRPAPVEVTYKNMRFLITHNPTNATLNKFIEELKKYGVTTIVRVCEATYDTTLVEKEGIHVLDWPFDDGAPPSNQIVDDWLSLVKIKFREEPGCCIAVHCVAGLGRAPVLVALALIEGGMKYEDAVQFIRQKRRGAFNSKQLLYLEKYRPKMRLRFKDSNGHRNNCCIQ

recombinant PRL-3 = biological target: T2, recombinant PRL-3 (Homo sapiens, UniProt O75365); assay: In vitro phosphatase assay (DiFMUP hydrolysis), PRL-3; on % Phosphatase Activity (compared to DMSO) PRL-3: test concentration or dose not given here
T2 construct: 6xHis (N, cleaved yes); made in house; host or cells: E. coli One Shot BL21 Star

recombinant PRL-2 = biological target: T3, recombinant PRL-2 (Homo sapiens, UniProt Q12974); assay: In vitro phosphatase assay (DiFMUP hydrolysis), PRL-2;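 further: PRL-2 activity read as DiFMUP hydrolysis after 20 min at room temperature with drug, enzyme first pre-reduced at 4 °C for 20 min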
T3 construct: 6xHis (N, cleaved yes); made in house; host or cells: E. coli One Shot BL21 Star
T3 sequence (Q12974 1-167): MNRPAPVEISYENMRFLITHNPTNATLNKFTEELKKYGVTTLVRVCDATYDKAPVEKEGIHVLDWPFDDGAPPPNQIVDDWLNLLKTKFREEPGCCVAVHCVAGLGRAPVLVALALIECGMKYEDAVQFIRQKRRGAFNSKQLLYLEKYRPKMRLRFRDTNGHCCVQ

[1] = FDA-approved drug screen, compared to DMSO

T2 sequence (O75365 whole entry): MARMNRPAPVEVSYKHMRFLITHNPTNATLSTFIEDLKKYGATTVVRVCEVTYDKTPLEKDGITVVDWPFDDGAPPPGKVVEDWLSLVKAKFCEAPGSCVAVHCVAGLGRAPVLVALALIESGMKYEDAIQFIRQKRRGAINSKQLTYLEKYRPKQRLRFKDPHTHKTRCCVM

Structure (SMILES) | % Phosphatase Activity (compared to DMSO) PRL-1 (recombinant PRL-1; [1]) [%] | % Phosphatase Activity (compared to DMSO) PRL-3 (recombinant PRL-3; [1]) [%] | % Phosphatase Activity (compared to DMSO) PRL-2 (recombinant PRL-2; [1]) [%] | other results
Clc1cccc(Cl)c1N=C1NCCN1 [Clonidine HCl] |  |  |  | % Phosphatase Activity (compared to DMSO) PRL-1 (recombinant PRL-1): 118%; % Phosphatase Activity (compared to DMSO) PRL-3 (recombinant PRL-3): 85%; % Phosphatase Activity (compared to DMSO) PRL-2 (recombinant PRL-2): 115%
COC(=O)[C@H](c1ccccc1Cl)N1CCc2sccc2C1 [Clopidogrel] |  |  |  | % Phosphatase Activity (compared to DMSO) PRL-1 (recombinant PRL-1): 100%; % Phosphatase Activity (compared to DMSO) PRL-3 (recombinant PRL-3): 81%; % Phosphatase Activity (compared to DMSO) PRL-2 (recombinant PRL-2): 86%
Cc1nc(C)c(Cl)c(O)c1Cl [Clopidol] | 112 | 80 | 109 | 
CC(C)NCC(O)c1ccccc1Cl.Cl (stereo not drawn) [Clorprenaline HCl] | 91 | 75 | 102 | 
Nc1cc(C(Cl)=C(Cl)Cl)c(S(N)(=O)=O)cc1S(N)(=O)=O [Clorsulon] | 98 | 92 | 115 | 
Cc1cc(C(C#N)c2ccc(Cl)cc2)c(Cl)cc1NC(=O)c1cc(I)cc(I)c1[O-].[Na+] (stereo not drawn) [Closantel Sodium, reference compound] | 15 | 34 | 12 | IC50 (recombinant PRL-1; […] protein, DiFMUP at KM, read-out: Calculated IC50, PRL-1 phosphatase activity): 22 ± 8 µM; IC50 (recombinant PRL-3; […] protein, DiFMUP at KM, read-out: Calculated IC50, PRL-3 phosphatase activity): 10 ± 0.4 µM; IC50 (recombinant PRL-2; […] protein, DiFMUP at KM, read-out: Calculated IC50, PRL-2 phosphatase activity): 18 ± 1 µM
Cc1onc(-c2ccccc2Cl)c1C(=O)N[C@@H]1C(=O)N2[C@@H]1SC(C)(C)[C@@H]2C(=O)O [Cloxacillin Sodium] | 98 | 87 | 104 | 
Oc1ccc(Cl)c2cccnc12 [Cloxiquine] | 108 | 90 | 100 | 
CN1CCN(C2=Nc3cc(Cl)ccc3Nc3ccccc32)CC1 [Clozapine] | 108 | 85 | 95 | 
CC(C)c1nc(CN(C)C(=O)N[C@@H](CCN2CCOCC2)C(=O)N[C@H](CC[C@H](Cc2ccccc2)NC(=O)OCc2cncs2)Cc2ccccc2)cs1 [Cobicistat (GS-9350)] | 88 | 95 | 95 | 
O=C(c1ccc(F)c(F)c1Nc1ccc(I)cc1F)N1CC(O)([C@@H]2CCCCN2)C1 [Cobimetinib (GDC-0973, RG7420)] | 95 | 95 | 97 | 
Cc1nc2c([nH]1)-c1ccccc1N(C(=O)c1ccc(NC(=O)c3ccccc3-c3ccccc3)cc1)CC2.Cl [Conivaptan HCl] | 95 | 85 | 106 | 
CC(=O)OCC(=O)[C@@]1(O)CC[C@H]2[C@@H]3CCC4=CC(=O)CC[C@]4(C)[C@H]3C(=O)C[C@@]21C [Cortisone acetate] | 98 | 78 | 94 | 
O=c1ccc2ccccc2o1 [Coumarin] | 92 | 76 | 98 | 
CC1(COc2ccc3c(c2)ncn3-c2ccc3cccc(N4CCC(N)CC4)c3n2)COC1 [Crenolanib (CP-868596)] | 117 | 105 | 115 | 
CN(C)c1ccc(C(=C2C=CC(=[N+](C)C)C=C2)c2ccc(N(C)C)cc2)cc1 [Crystal Violet] | 79 | 85 | 86 | 
COc1cc(/C=C/C(=O)CC(=O)/C=C/c2ccc(O)c(OC)c2)ccc1O [Curcumin] | 78 | 85 | 77 | 
CC1CC(OC(=O)C(O)c2ccccc2)CC(C)(C)C1 (stereo not drawn) [Cyclandelate] | 82 | 74 | 84 | 
CN1CCN(C(c2ccccc2)c2ccccc2)CC1.Cl.Cl [Cyclizine 2HCl] | 94 | 69 | 116 | 
CN(C)CCC=C1c2ccccc2C=Cc2ccccc21 [Cyclobenzaprine HCl] |  |  |  | % Phosphatase Activity (compared to DMSO) PRL-1 (recombinant PRL-1): 104%; % Phosphatase Activity (compared to DMSO) PRL-3 (recombinant PRL-3): 85%; % Phosphatase Activity (compared to DMSO) PRL-2 (recombinant PRL-2): 103%

Structure (SMILES) | % Phosphatase Activity (compared to DMSO) PRL-1 (recombinant PRL-1; [1]) [%] | % Phosphatase Activity (compared to DMSO) PRL-3 (recombinant PRL-3; [1]) [%] | % Phosphatase Activity (compared to DMSO) PRL-2 (recombinant PRL-2; [1]) [%] | other results
O=P1(N(CCCl)CCCl)NCCCO1 (stereo not drawn) [Cyclophosphamide Monohydrate] |  |  |  | % Phosphatase Activity (compared to DMSO) PRL-1 (recombinant PRL-1): 90%; % Phosphatase Activity (compared to DMSO) PRL-3 (recombinant PRL-3): 94%; % Phosphatase Activity (compared to DMSO) PRL-2 (recombinant PRL-2): 105%
CN1CCC(=C2c3ccccc3C=Cc3ccccc32)CC1 [Cyproheptadine hydrochloride] | 93 | 84 | 102 | 
CC(=O)O[C@]1(C(C)=O)CC[C@H]2[C@@H]3C=C(Cl)C4=CC(=O)[C@@H]5C[C@@H]5[C@]4(C)[C@H]3CC[C@@]21C [Cyproterone Acetate] | 92 | 99 | 91 | 
Nc1nc(N)nc(NC2CC2)n1 [Cyromazine] | 90 | 78 | 101 | 
Cl.NCCS [Cysteamine HCl] | 91 | 70 | 79 | 
Nc1ccn([C@@H]2O[C@H](CO)[C@@H](O)[C@@H]2O)c(=O)n1 [Cytarabine] | 104 | 91 | 86 | 
CC(C)(CO)[C@@H](O)C(=O)NCCCO [D panthenol] | 93 | 90 | 80 | 
OC[C@@H](O)[C@@H](O)[C@H](O)[C@H](O)CO [D-Mannitol] | 93 | 104 | 101 | 
CCN(CC)C(=O)c1cccc(C)c1 [DEET] | 95 | 85 | 77 | 
CCCCCCOC(=O)N=C(N)c1ccc(NCc2nc3cc(C(=O)N(CCC(=O)OCC)c4ccccn4)ccc3n2C)cc1 [Dabigatran Etexilate] | 121 | 106 | 112 | 
CC(C)(C)c1nc(-c2cccc(NS(=O)(=O)c3c(F)cccc3F)c2F)c(-c2ccnc(N)n2)s1 [Dabrafenib (GSK2118436)] | 81 | 86 | 82 | 
CN(C)/N=N/c1[nH]cnc1C(N)=O [Dacarbazine] | 92 | 76 | 98 | 
COC(=O)N[C@H](C(=O)N1CCC[C@H]1c1ncc(-c2ccc(-c3ccc(-c4cnc([C@@H]5CCCN5C(=O)[C@@H](NC(=O)OC)C(C)C)[nH]4)cc3)cc2)[nH]1)C(C)C [Daclatasvir (BMS-790052)] | 320 | 236 | 324 | 
COc1cc2ncnc(Nc3ccc(F)c(Cl)c3)c2cc1NC(=O)/C=C/CN1CCCCC1 [Dacomitinib (PF299804, PF299)] | 145 | 120 | 147 | 
CN1C[C@@H]2C[C@H]1CN2c1cc2c(cc1F)c(=O)c(C(=O)O)cn2C1CC1.CS(=O)(=O)O [Danofloxacin Mesylate] | 998 | 146 | 757 | 
O=C1c2cccc(O)c2C(=O)c2c(O)cccc21 [Danthron] | 96 | 78 | 96 | 
O=C1CN(/N=C/c2ccc(-c3ccc([N+](=O)[O-])cc3)o2)C(O)=N1 [Dantrolene sodium] | 76 | 60 | 75 | 
CCOc1ccc(Cc2cc([C@@H]3O[C@H](CO)[C@@H](O)[C@H](O)[C@H]3O)ccc2Cl)cc1 [Dapagliflozin] |  |  |  | % Phosphatase Activity (compared to DMSO) PRL-1 (recombinant PRL-1): 98%; % Phosphatase Activity (compared to DMSO) PRL-3 (recombinant PRL-3): 89%; % Phosphatase Activity (compared to DMSO) PRL-2 (recombinant PRL-2): 91%
CN(C)[C@@H](CCOc1cccc2ccccc12)c1ccccc1 [Dapoxetine HCl] | 99 | 111 | 109 | 

Source: PMC8119466, “A screen of FDA-approved drugs identifies inhibitors of protein tyrosine phosphatase 4A3 (PTP4A3 or PRL-3)” (Scientific Reports, 2021)
